We go through 7 molecules from PubChem BioAssay AID270 (DTP/NCI, 2004).

SMILES strings stand for the structures. Where “and” joins values, the source holds several entries; their conditions need not be identical. Identical values can stand only once. Records with an inconclusive call do not appear.

The test system of the experiment is BDF1 mice, s.c. Lewis lung carcinoma, T/C %. The experiment in a line: NCI In Vivo Anticancer Drug Screen. Data for tumor model Lewis Lung Carcinoma (subcutaneous) in B6D2F1 (BDF1) mice. The procedure:
The antitumor activity of compounds was measured in mice bearing transplantable tumors. Survival or tumor size were measured and the results are expressed as the measurement made in the treated group (T) divided by the measurement made in the vehicle treated control group (C). The tumor model used in this assay is Lewis Lung Carcinoma (subcutaneous) in B6D2F1 (BDF1) mice

For `CC1CCC[N-]C1.CC1CCC[N-]C1.CC1CCC[N-]C1.CC1CCC[N-]C1.[Cl][Rh][Cl]` (stereo unspecified), the T/C runs as follows: (endpoint: median survival time, dose: 3.0 mg/kg/injection, schedule: Q01DX009 (ip), vehicle: Klucel (hydroxypropylcellulose) (HPC), higher = longer survival) 102 % of control; (endpoint: median survival time, dose: 6.0 mg/kg/injection, schedule: Q01DX009 (ip), vehicle: Klucel (hydroxypropylcellulose) (HPC), higher = longer survival) 91 % of control.

For the molecule `O=NN(CCCl)C(=O)NC1CCCCC1`, the T/C was 91 % of control (endpoint: median survival time, dose: 0.12 mg/kg/injection, schedule: Q08HX024 (ip), vehicle: Klucel (hydroxypropylcellulose) (HPC), higher = longer survival); 181 % of control (endpoint: median survival time, dose: 0.12 mg/kg/injection, schedule: Q08HX024 (ip), vehicle: saline, higher = longer survival); 106 % of control and 111 % of control (endpoint: median survival time, dose: 0.25 mg/kg/injection, schedule: Q08HX024 (ip), vehicle: Klucel (hydroxypropylcellulose) (HPC), higher = longer survival); 182 % of control (endpoint: median survival time, dose: 0.25 mg/kg/injection, schedule: Q08HX024 (ip), vehicle: saline, higher = longer survival); 103 % of control and 115 % of control (endpoint: median survival time, dose: 0.5 mg/kg/injection, schedule: Q08HX024 (ip), vehicle: Klucel (hydroxypropylcellulose) (HPC), higher = longer survival); 103 % of control (endpoint: median survival time, dose: 0.5 mg/kg/injection, schedule: Q08HX024 (ip), vehicle: saline, higher = longer survival). Besides, the T/C reads like this: (endpoint: median survival time, dose: 1.0 mg/kg/injection, schedule: Q08HX024 (ip), vehicle: Klucel (hydroxypropylcellulose) (HPC), higher = longer survival) 119 % of control; (endpoint: median survival time, dose: 1.0 mg/kg/injection, schedule: Q08HX024 (ip), vehicle: saline, higher = longer survival) 91 % of control; (endpoint: median survival time, dose: 2.4 mg/kg/injection, schedule: Q01DX001 (ip), vehicle: other, higher = longer survival) 120 % of control; (endpoint: median survival time, dose: 4.0 mg/kg/injection, schedule: Q01DX009 (ip), vehicle: saline with Tween-80, higher = longer survival) 112 % of control; (endpoint: median survival time, dose: 4.7 mg/kg/injection, schedule: Q01DX001 (ip), vehicle: other, higher = longer survival) 109 % of control; (endpoint: median survival time, dose: 5.0 mg/kg/injection, schedule: Q01DX001 (ip), vehicle: Klucel (hydroxypropylcellulose) (HPC), higher = longer survival) 95 % of control and 106 % of control and 123 % of control. Besides, the T/C (endpoint: median survival time, dose: 8.0 mg/kg/injection, schedule: Q01DX009 (ip), vehicle: saline with Tween-80, higher = longer survival) was 120 % of control; the T/C (endpoint: median survival time, dose: 9.5 mg/kg/injection, schedule: Q01DX001 (ip), vehicle: other, higher = longer survival) is 105 % of control; the T/C (endpoint: median survival time, dose: 10.0 mg/kg/injection, schedule: Q01DX001 (ip), vehicle: Klucel (hydroxypropylcellulose) (HPC), higher = longer survival) is 86 % of control and 91 % of control and 111 % of control; the T/C (endpoint: median survival time, dose: 12.5 mg/kg/injection, schedule: Q01DX001 (ip), vehicle: Klucel (hydroxypropylcellulose) (HPC), higher = longer survival) is 93 % of control and 113 % of control; the T/C (endpoint: median survival time, dose: 12.5 mg/kg/injection, schedule: Q01DX001 (ip), vehicle: saline with Tween-80, higher = longer survival) is 158 % of control; the T/C (endpoint: median survival time, dose: 18.9 mg/kg/injection, schedule: Q01DX001 (ip), vehicle: other, higher = longer survival) was 150 % of control. Moreover, the T/C (endpoint: median survival time, dose: 20.0 mg/kg/injection, schedule: Q01DX001 (ip), vehicle: Klucel (hydroxypropylcellulose) (HPC), higher = longer survival) was 97 % of control and 115 % of control; the T/C (endpoint: median survival time, dose: 25.0 mg/kg/injection, schedule: Q01DX001 (ip), vehicle: Klucel (hydroxypropylcellulose) (HPC), higher = longer survival) was 108 % of control; the T/C (endpoint: median survival time, dose: 27.0 mg/kg/injection, schedule: Q11DX002 (ip), vehicle: Klucel (hydroxypropylcellulose) (HPC), higher = longer survival) is 111 % of control; the T/C (endpoint: median survival time, dose: 32.0 mg/kg/injection, schedule: Q01DX009 (ip), vehicle: Klucel (hydroxypropylcellulose) (HPC), higher = longer survival) was 94 % of control; the T/C (endpoint: median survival time, dose: 33.0 mg/kg/injection, schedule: Q01DX001 (ip), vehicle: carboxymethylcellulose (CMC), higher = longer survival) is 102 % of control; the T/C (endpoint: median survival time, dose: 33.0 mg/kg/injection, schedule: Q06DX002 (ip), vehicle: carboxymethylcellulose (CMC), higher = longer survival) is 180 % of control. The T/C (endpoint: median survival time, dose: 33.0 mg/kg/injection, schedule: Q08DX002 (ip), vehicle: carboxymethylcellulose (CMC), higher = longer survival) was 100 % of control; the T/C (endpoint: median survival time, dose: 33.0 mg/kg/injection, schedule: Q12DX002 (ip), vehicle: carboxymethylcellulose (CMC), higher = longer survival) is 102 % of control; the T/C (endpoint: median survival time, dose: 37.8 mg/kg/injection, schedule: Q01DX001 (ip), vehicle: other, higher = longer survival) was 160 % of control; the T/C (endpoint: median survival time, dose: 40.0 mg/kg/injection, schedule: Q11DX002 (ip), vehicle: Klucel (hydroxypropylcellulose) (HPC), higher = longer survival) is 79 % of control and 97 % of control; the T/C (endpoint: median survival time, dose: 40.0 mg/kg/injection, schedule: Q11DX002 (oral), vehicle: Klucel (hydroxypropylcellulose) (HPC), higher = longer survival) was 86 % of control; the T/C (endpoint: median survival time, dose: 50.0 mg/kg/injection, schedule: Q01DX001 (ip), vehicle: Klucel (hydroxypropylcellulose) (HPC), higher = longer survival) was 67 % of control. Further, the T/C was 100 % of control (endpoint: median survival time, dose: 50.0 mg/kg/injection, schedule: Q01DX001 (ip), vehicle: carboxymethylcellulose (CMC), higher = longer survival); 151 % of control (endpoint: median survival time, dose: 50.0 mg/kg/injection, schedule: Q06DX002 (ip), vehicle: carboxymethylcellulose (CMC), higher = longer survival); 92 % of control (endpoint: median survival time, dose: 50.0 mg/kg/injection, schedule: Q08DX002 (ip), vehicle: carboxymethylcellulose (CMC), higher = longer survival); 103 % of control (endpoint: median survival time, dose: 50.0 mg/kg/injection, schedule: Q10DX002 (ip), vehicle: carboxymethylcellulose (CMC), higher = longer survival); 115 % of control (endpoint: median survival time, dose: 50.0 mg/kg/injection, schedule: Q12DX002 (ip), vehicle: carboxymethylcellulose (CMC), higher = longer survival); 53 % of control and 113 % of control (endpoint: median survival time, dose: 60.0 mg/kg/injection, schedule: Q11DX002 (ip), vehicle: Klucel (hydroxypropylcellulose) (HPC), higher = longer survival). Also, the T/C reads like this: (endpoint: median survival time, dose: 60.0 mg/kg/injection, schedule: Q11DX002 (oral), vehicle: Klucel (hydroxypropylcellulose) (HPC), higher = longer survival) 90 % of control; (endpoint: median survival time, dose: 75.7 mg/kg/injection, schedule: Q01DX001 (ip), vehicle: other, higher = longer survival) 124 % of control; (endpoint: median survival time, dose: 80.0 mg/kg/injection, schedule: Q01DX001 (ip), vehicle: Klucel (hydroxypropylcellulose) (HPC), higher = longer survival) 112 % of control; (endpoint: median survival time, dose: 90.0 mg/kg/injection, schedule: Q11DX002 (oral), vehicle: Klucel (hydroxypropylcellulose) (HPC), higher = longer survival) 75 % of control; (endpoint: median survival time, dose: 100.0 mg/kg/injection, schedule: Q01DX001 (ip), vehicle: saline with Tween-80, higher = longer survival) 154 % of control; (endpoint: median survival time, dose: 160.0 mg/kg/injection, schedule: Q01DX001 (ip), vehicle: Klucel (hydroxypropylcellulose) (HPC), higher = longer survival) 110 % of control. For the same molecule, the T/C is, setting by setting: (endpoint: median tumor weight (est.), dose: 4.0 mg/kg/injection, schedule: Q01DX009 (ip), vehicle: Klucel (hydroxypropylcellulose) (HPC), higher = larger tumour) 66 % of control; (endpoint: median tumor weight (est.), dose: 8.0 mg/kg/injection, schedule: Q01DX009 (ip), vehicle: Klucel (hydroxypropylcellulose) (HPC), higher = larger tumour) 46 % of control; (endpoint: median tumor weight (est.), dose: 12.5 mg/kg/injection, schedule: Q01DX001 (ip), vehicle: Klucel (hydroxypropylcellulose) (HPC), higher = larger tumour) 88 % of control; (endpoint: median tumor weight (est.), dose: 16.0 mg/kg/injection, schedule: Q01DX009 (ip), vehicle: Klucel (hydroxypropylcellulose) (HPC), higher = larger tumour) 3 % of control; (endpoint: median tumor weight (est.), dose: 19.0 mg/kg/injection, schedule: Q01DX001 (ip), vehicle: carboxymethylcellulose (CMC), higher = larger tumour) 72 % of control; (endpoint: median tumor weight (est.), dose: 25.0 mg/kg/injection, schedule: Q01DX001 (ip), vehicle: Klucel (hydroxypropylcellulose) (HPC), higher = larger tumour) 48 % of control. For the same molecule, the T/C is, setting by setting: (endpoint: median tumor weight (est.), dose: 38.0 mg/kg/injection, schedule: Q01DX001 (ip), vehicle: carboxymethylcellulose (CMC), higher = larger tumour) 46 % of control; (endpoint: median tumor weight (est.), dose: 57.0 mg/kg/injection, schedule: Q01DX001 (ip), vehicle: carboxymethylcellulose (CMC), higher = larger tumour) 34 % of control.

On to `O=C(Nc1ccc2c(c1)Cc1cccc(NC(=O)C(Cl)Cl)c1-2)C(Cl)Cl`, for which, for the setting “endpoint: mean tumor weight, dose: 45.0 mg/kg/injection, schedule: Q01DX011 (ip), vehicle: carboxymethylcellulose (CMC), higher = larger tumour”, the T/C is 72 % of control.

`Cc1ccc(S(=O)(=O)[O][Pb]([CH3])([CH3])[CH3])cc1`: the T/C was 98 % of control and 122 % of control (endpoint: median survival time, dose: 0.18 mg/kg/injection, schedule: Q01DX009 (ip), vehicle: saline, higher = longer survival); 108 % of control (endpoint: median survival time, dose: 0.37 mg/kg/injection, schedule: Q01DX009 (ip), vehicle: saline, higher = longer survival); 116 % of control (endpoint: median survival time, dose: 0.75 mg/kg/injection, schedule: Q01DX009 (ip), vehicle: saline, higher = longer survival); 109 % of control (endpoint: median survival time, dose: 1.5 mg/kg/injection, schedule: Q01DX009 (ip), vehicle: saline, higher = longer survival).

As to `CN1CCCC1`, the T/C was 52 % of control (endpoint: mean tumor weight, dose: 44.0 mg/kg/injection, schedule: Q01DX011 (ip), vehicle: carboxymethylcellulose (CMC), higher = larger tumour); 58 % of control (endpoint: mean tumor weight, dose: 66.0 mg/kg/injection, schedule: Q01DX011 (ip), vehicle: carboxymethylcellulose (CMC), higher = larger tumour); 69 % of control (endpoint: mean tumor weight, dose: 100.0 mg/kg/injection, schedule: Q01DX011 (ip), vehicle: carboxymethylcellulose (CMC), higher = larger tumour); 109 % of control (endpoint: mean tumor weight, dose: 150.0 mg/kg/injection, schedule: Q01DX011 (ip), vehicle: carboxymethylcellulose (CMC), higher = larger tumour).

With `Cc1cccc(NC(=O)N(CCCl)N=O)c1`, the T/C (endpoint: median survival time, dose: 0.38 mg/kg/injection, schedule: Q01DX009 (ip), vehicle: saline with Tween-80, higher = longer survival) was 96 % of control; the T/C (endpoint: median survival time, dose: 0.75 mg/kg/injection, schedule: Q01DX009 (ip), vehicle: saline with Tween-80, higher = longer survival) was 102 % of control; the T/C (endpoint: median survival time, dose: 3.0 mg/kg/injection, schedule: Q01DX009 (ip), vehicle: saline with Tween-80, higher = longer survival) was 92 % of control.

As for `COC1=CC(=O)N(C(=O)C2CSC(C(CO)NC(=O)c3csc(/C=N/O)n3)=N2)C1` (stereo unspecified), the T/C (endpoint: median survival time, dose: 100.0 mg/kg/injection, schedule: Q01DX009 (ip), vehicle: Klucel (hydroxypropylcellulose) (HPC), higher = longer survival) was 92 % of control and the T/C (endpoint: median survival time, dose: 200.0 mg/kg/injection, schedule: Q01DX009 (ip), vehicle: Klucel (hydroxypropylcellulose) (HPC), higher = longer survival) is 92 % of control.
